According to ChEMBL document CHEMBL1149159, “Structure-activity relationship of purine ribonucleosides for inhibition of hepatitis C virus RNA-dependent RNA polymerase” (J Med Chem, 2004):

Molecular target: RNA-directed RNA polymerase (Hepacivirus hominis, UniProt O39930)
Test: Inhibition HCV NS5B-mediated RNA synthesis
Assay type: functional

Chain of RNA-directed RNA polymerase (O39930 whole entry): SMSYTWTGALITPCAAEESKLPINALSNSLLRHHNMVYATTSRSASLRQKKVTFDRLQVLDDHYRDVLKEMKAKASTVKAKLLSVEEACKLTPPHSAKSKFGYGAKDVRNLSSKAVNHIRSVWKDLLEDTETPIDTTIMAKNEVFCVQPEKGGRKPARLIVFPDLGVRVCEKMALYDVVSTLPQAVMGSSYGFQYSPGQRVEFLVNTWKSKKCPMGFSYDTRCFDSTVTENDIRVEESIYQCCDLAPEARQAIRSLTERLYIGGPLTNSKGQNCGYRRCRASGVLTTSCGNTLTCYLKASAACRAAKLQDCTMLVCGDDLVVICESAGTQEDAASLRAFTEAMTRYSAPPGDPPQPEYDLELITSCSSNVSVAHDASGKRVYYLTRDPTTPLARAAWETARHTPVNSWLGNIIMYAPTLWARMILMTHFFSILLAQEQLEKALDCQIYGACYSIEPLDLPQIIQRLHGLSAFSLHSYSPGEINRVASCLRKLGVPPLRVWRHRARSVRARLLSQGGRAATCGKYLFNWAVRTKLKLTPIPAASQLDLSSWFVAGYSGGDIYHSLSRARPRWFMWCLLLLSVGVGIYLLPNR

IC50 [µM]	SMILES
47	CO[C@@H]1[C@H](O)[C@@H](CO)O[C@H]1n1cnc2c(N)ncnc21
0.13	C[C@@]1(O)[C@H](O)[C@@H](CO)O[C@H]1n1cnc2c(=O)[nH]c(N)nc21 [2'-B-METHYL-GUANOSINE]
20	Nc1nc2c(ncn2[C@@H]2O[C@H](CO)C(O)[C@H]2O)c(=O)[nH]1 (single isomer, unassigned)
2.6	C[C@@]1(O)[C@H](O)[C@@H](CO)O[C@H]1n1cnc2c(N)nc(N)nc21
0.6	Nc1nc2c(ncn2[C@@H]2O[C@H](CO)C[C@H]2O)c(=O)[nH]1
1.6	CO[C@@H]1[C@H](O)[C@@H](CO)O[C@H]1n1cnc2c(=O)[nH]c(N)nc21
1.8	Nc1nc2c(ncn2[C@@H]2O[C@H](CO)[C@@H](F)[C@H]2O)c(=O)[nH]1
50	Nc1ncnc2c1ncn2[C@@H]1O[C@H](CO)[C@@H](O)[C@@H]1O [VIDARABINE]
4	C[C@@]1(O)[C@H](O)[C@@H](CO)O[C@H]1n1cnc2c(=O)[nH]cnc21
22	Nc1ncnc2c1ncn2[C@@H]1O[C@H](CO)C[C@H]1O [CORDYCEPIN]
46	C[C@@]1(O)[C@H](O)[C@@H](CO)O[C@H]1n1cnc2cnc(N)nc21
28	Nc1ncnc2c1ncn2[C@@H]1O[C@H](CO)[C@@H](F)[C@H]1O

SMILES	IC50 [µM]
CO[C@]1(C)[C@H](O)[C@@H](CO)O[C@H]1n1cnc2c(N)ncnc21	> 50
C[C@@]1(O)[C@@H](CO)O[C@@H](n2cnc3c(N)ncnc32)[C@@H]1O	> 50
C[C@]1(O)[C@H](O)[C@@H](CO)O[C@H]1n1cnc2c(N)ncnc21	> 50
Nc1ncnc2c1ncn2[C@@H]1O[C@H](CO)[C@@H](O)[C@H]1F [2'-BETA-FLUORO-2',3'-DEOXYADENOSINE]	> 50
C[C@@]1(O)[C@H](O)[C@@H](CO)O[C@H]1n1cnc2c(N)ncnc21	1.9
CC[C@@]1(O)[C@H](O)[C@@H](CO)O[C@H]1n1cnc2c(N)ncnc21	> 50
C[C@]1(O)[C@@H](CO)O[C@@H](n2cnc3c(N)ncnc32)[C@@H]1O	> 50
